Reference: ChEMBL document CHEMBL5143511, “Positioning of an unprecedented 1,5-oxaza spiroquinone scaffold into SMYD2 inhibitors in epigenetic space” (Eur J Med Chem, 2022)

Key:
[1] = target: T1, N-lysine methyltransferase SMYD2 (Homo sapiens, UniProt Q9NRG4); assay: Inhibition of SMYD2 (unknown origin) assessed as residual activity at 10 uM using 3H-SAM as substrate incubated for 1 hr by filter binding method relative to control
MDA-MB-231 = assay: Antiproliferative activity against human MDA-MB-231 cells assessed as inhibition of cell growth incubated for 72 hrs by CellTiter-Glo luminescent cell viability assay; format: functional, cell-based; conditions: MDA-MB-231, 72 h
Ca-Ski = assay: cells; format: functional, cell-based; conditions: Homo sapiens, 72 h
Description: Antiproliferative activity against human Ca-Ski cells assessed as inhibition of cell growth incubated for 72 hrs by CellTiter-Glo luminescent cell viability assay

HEK293 = assay: Induction of apoptosis in HEK293 cells assessed as increase in cleaved PARP level incubated for 24 hrs by immunoblot analysis; format: toxicity, cell-based; conditions: human, hek293, 24 h, DDE = dose-dependent effect, dose 0.0195-10 µM
[2] = target: T1, N-lysine methyltransferase SMYD2; assay: Inhibition of SMYD2 (unknown origin) using 3H-SAM as substrate incubated for 1 hr by filter binding method
MDA-MB-453 [3] = assay: Antitumor activity against human MDA-MB-453 cells xenografted in BALB/c nude mouse assessed as reduction in tumor volume at 40 mg/kg, ip measured every 3 days for 15 days by caliper method (reference value: 177 +/- 19 mm3); format: functional; conditions: time 15 day
MDA-MB-453 [4] = assay: Antitumor activity against human MDA-MB-453 cells xenografted in BALB/c nude mouse assessed as reduction in tumor weight at 40 mg/kg, ip measured after 15 days (reference value: 0.038 +/- 0.02 g); format: functional; conditions: time 15 day
[5] = Drug metabolism in liver microsomes (unknown origin) assessed as M-78 metabolite formation by LC-MS/MS analysis; format: ADME, Microsome
[6] = Toxicity in […] xenografted with human MDA-MB-453 cells assessed as body weight loss at 40 mg/kg, ip administered as DMSO/Cremophor EL/ PEG400/ DDW formulation and measured after 4 days; format: organism-based; conditions: in vivo, 96 h, time 4 day
[7] = Cmax in ICR mouse at 40 mg/kg, ip administered as vehicle 1 as DMSO/Cremophor EL/ PEG400/ DDW formulation measured upto 1440 mins by LC-MS/MS analysis; format: ADME, organism-based; parameters: dose 40 mg/kg, time < 1440 min, route ip; conditions: in vivo
MDA-MB-453 [8] = assay: Antitumor activity against human MDA-MB-453 cells xenografted in BALB/c nude mouse assessed as reduction in tumor volume at 40 mg/kg, ip measured on day 1 by caliper method (reference value: 137 +/- 10 mm3); format: functional; conditions: time 1 day
MDA-MB-453 [9] = assay: Antitumor activity against human MDA-MB-453 cells xenografted in ip dosed BALB/c nude mouse assessed as reduction in tumor growth measured after 15 days; format: functional; conditions: MDA-MB-453, 360 h, time 15 day
[10] = AUCinfinity in ICR mouse at 40 mg/kg, ip administered as vehicle 2 as corn oil suspension measured upto 1440 mins by LC-MS/MS analysis; format: ADME, organism-based; parameters: time < 1440 min, dose 40 mg/kg, route ip; conditions: in vivo
MDA-MB-453 [11] = assay: cells; format: functional, cell-based; conditions: Homo sapiens, MDA-MB-453, 72 h
Description: Antiproliferative activity against human MDA-MB-453 cells assessed as inhibition of cell growth incubated for 72 hrs by CellTiter-Glo luminescent cell viability assay

[12] = Drug metabolism in liver microsomes (unknown origin) assessed as M-115 metabolite formation by LC-MS/MS analysis; format: ADME, Microsome
[13] = Terminal half life in ICR mouse at 40 mg/kg, ip administered as vehicle 1 as DMSO/Cremophor EL/ PEG400/ DDW formulation measured upto 1440 mins by LC-MS/MS analysis; format: ADME, organism-based; conditions: in vivo, read-out: beta t1/2
[14] = Drug metabolism in liver microsomes (unknown origin) assessed as M-254 metabolite formation by LC-MS/MS analysis; format: ADME, Microsome
[15] = Drug metabolism in liver microsomes (unknown origin) assessed as M-56 metabolite formation by LC-MS/MS analysis; format: ADME, Microsome
[16] = Cmax in ICR mouse at 40 mg/kg, ip administered as vehicle 2 as corn oil suspension measured upto 1440 mins by LC-MS/MS analysis; format: ADME, organism-based; parameters: time < 1440 min, dose 40 mg/kg, route ip; conditions: in vivo
[17] = Terminal half life in ICR mouse at 40 mg/kg, ip administered as vehicle 2 as corn oil suspension measured upto 1440 mins by LC-MS/MS analysis; format: ADME, organism-based; conditions: in vivo, read-out: beta t1/2
MDA-MB-453 [18] = assay: Antitumor activity against human MDA-MB-453 cells xenografted in BALB/c nude mouse assessed as reduction in tumor volume at 40 mg/kg, ip measured on day 4 by caliper method (reference value: 145 +/- 11 mm3); format: functional; conditions: time 4 day
MDA-MB-453 [19] = assay: Antitumor activity against human MDA-MB-453 cells xenografted in BALB/c nude mouse assessed as reduction in tumor volume at 40 mg/kg, ip measured every 3 days for 8 days by caliper method (reference value: 152+/- 11 mm3); format: functional; conditions: time 8 day
MDA-MB-453 [20] = assay: Antitumor activity against human MDA-MB-453 cells xenografted in BALB/c nude mouse assessed as reduction in tumor volume at 40 mg/kg, ip measured every 3 days for 11 days by caliper method (reference value: 168 +/- 16 mm3); format: functional; conditions: time 11 day
[21] = Tmax in ICR mouse at 40 mg/kg, ip administered as vehicle 1 as DMSO/Cremophor EL/ PEG400/ DDW formulation measured upto 1440 mins by LC-MS/MS analysis; format: ADME, organism-based; conditions: in vivo
[22] = AUCinfinity in ICR mouse at 40 mg/kg, ip administered as vehicle 1 as DMSO/Cremophor EL/ PEG400/ DDW formulation measured upto 1440 mins by LC-MS/MS analysis; format: ADME, organism-based; parameters: dose 40 mg/kg, time < 1440 min, route ip; conditions: in vivo
[23] = Tmax in ICR mouse at 40 mg/kg, ip administered as vehicle 2 as corn oil suspension measured upto 1440 mins by LC-MS/MS analysis; format: ADME, organism-based; conditions: in vivo
[24] = AUClast in ICR mouse at 40 mg/kg, ip administered as vehicle 2 as corn oil suspension measured upto 1440 mins by LC-MS/MS analysis; format: ADME, organism-based; parameters: dose 40 mg/kg, time < 1440 min, route ip; conditions: in vivo
[25] = Drug metabolism in liver microsomes (unknown origin) assessed as M+18 metabolite formation by LC-MS/MS analysis; format: ADME, Microsome
[26] = AUClast in ICR mouse at 40 mg/kg, ip administered as vehicle 1 as DMSO/Cremophor EL/ PEG400/ DDW formulation measured upto 1440 mins by LC-MS/MS analysis; format: ADME, organism-based; parameters: time < 1440 min, dose 40 mg/kg, route ip; conditions: in vivo
[27] = Drug uptake in ICR mouse plasma assessed as time required to reach higher drug level at 40 mg/kg, ip administered as vehicle 1 as DMSO/Cremophor EL/ PEG400/ DDW formulation measured upto 1440 mins by HPLC analysis; format: ADME, organism-based
MDA-MB-453 [28] = assay: Antitumor activity against human MDA-MB-453 cells xenografted in BALB/c nude mouse assessed as tumor growth inhibition rate at 40 mg/kg, ip measured after 15 days relative to control; format: functional; conditions: MDA-MB-453, 360 h, time 15 day, read-out: TGI
[29] = Drug concentration in ICR mouse plasma at 40 mg/kg, ip administered as vehicle 2 as corn oil suspension measured upto 1440 mins by HPLC analysis; format: ADME, organism-based
[30] = Metabolic stability in mouse liver microsomes assessed as parent compound remaining at 5 uM preincubated for 5 mins with NADPH followed by compound addition and measured after 15 mins by LC-MS/MS analysis; format: ADME, Microsome; conditions: read-out: Stability

T1 sequence (Q9NRG4 whole entry): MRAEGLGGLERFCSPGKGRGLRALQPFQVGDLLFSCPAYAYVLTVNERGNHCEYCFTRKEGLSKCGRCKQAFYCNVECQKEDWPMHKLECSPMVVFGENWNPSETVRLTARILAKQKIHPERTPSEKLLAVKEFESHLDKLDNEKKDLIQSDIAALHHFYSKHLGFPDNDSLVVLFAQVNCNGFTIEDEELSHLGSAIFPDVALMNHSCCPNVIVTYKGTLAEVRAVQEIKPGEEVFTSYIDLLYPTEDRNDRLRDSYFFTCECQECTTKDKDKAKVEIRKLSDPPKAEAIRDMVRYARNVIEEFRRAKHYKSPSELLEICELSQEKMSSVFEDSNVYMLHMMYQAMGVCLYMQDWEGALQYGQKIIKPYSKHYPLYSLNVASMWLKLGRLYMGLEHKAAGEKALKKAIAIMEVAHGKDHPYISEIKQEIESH

CC(C)N1C(=O)C(Cc2cc(C(F)(F)F)cc(C(F)(F)F)c2)COC12C=CC(=O)C=C2 (stereo not drawn)
Activity [1]: 6.72%
IC50 (MDA-MB-231): 1030 nM
IC50 (Ca-Ski): 733 nM
Activity (HEK293): Dde
IC50 [2]: 2.39 µM

CN1C(=O)C(CCNc2ccccc2)COC12C=CC(=O)C=C2 (stereo not drawn)
Activity [1]: 45.1%
IC50 [2]: > 20 µM

CN1C(=O)C(CCNc2ccc(Cl)c(Cl)c2)COC12C=CC(=O)C=C2 (stereo not drawn)
Activity [1]: 12.6%
IC50 [2]: 3.82 µM

CC(C)N1C(=O)C(CCO[Si](c2ccccc2)(c2ccccc2)C(C)(C)C)COC12C=CC(=O)C=C2 (stereo not drawn)
IC50 [2]: 0.399 µM

CC(C)N1C(=O)C(Cc2ccc(F)cc2)COC12C=CC(=O)C=C2 (stereo not drawn)
Activity [1]: 36%
IC50 [2]: > 20 µM

CC(C)N1C(=O)C(Cc2ccc(C(F)(F)F)cc2)COC12C=CC(=O)C=C2 (stereo not drawn)
Activity [1]: 33.8%
IC50 [2]: > 20 µM

CC(C)N1C(=O)C(Cc2cccc(Br)c2)COC12C=CC(=O)C=C2 (stereo not drawn)
Activity [1]: 42.5%
IC50 [2]: > 20 µM

CC(C)N1C(=O)C(Cc2ccc([N+](=O)[O-])cc2)COC12C=CC(=O)C=C2 (stereo not drawn)
Activity [1]: 66.7%
IC50 [2]: > 20 µM

CN1C(=O)C(CCNc2ccc(-c3cccs3)cc2)COC12C=CC(=O)C=C2 (stereo not drawn)
Activity [1]: 16.1%
IC50 [2]: 2.31 µM

CC(C)N1C(=O)C(Cc2ccc(C#N)cc2)COC12C=CC(=O)C=C2 (stereo not drawn)
Activity [1]: 80.7%
IC50 [2]: > 20 µM

CC(C)N1C(=O)C(Cc2ccccc2CS(=O)(=O)c2ccccc2)COC12C=CC(=O)C=C2 (stereo not drawn)
Activity [1]: 50.4%
IC50 [2]: > 20 µM

CN1C(=O)C(CCNc2cc(F)cc(C(F)(F)F)c2)COC12C=CC(=O)C=C2 (stereo not drawn)
Activity [1]: 53.5%
IC50 [2]: 7.52 µM

CN1C(=O)C(CCO)COC12C=CC(=O)C=C2 (stereo not drawn)
IC50 [2]: > 30 µM

CN1C(=O)C(CCNc2ccc(F)cc2)COC12C=CC(=O)C=C2 (stereo not drawn)
Activity [1]: 20.6%
IC50 [2]: 11.6 µM

O=C1C=CC2(C=C1)OCC(Cc1cc(C(F)(F)F)cc(C(F)(F)F)c1)C(=O)N2c1ccccc1 (stereo not drawn)
IC50 (MDA-MB-231): 1640 nM
IC50 (Ca-Ski): 879 nM
IC50 [2]: 18.5 µM

CC(C)N1C(=O)C(Cc2cc(C(F)(F)F)ccc2Cl)COC12C=CC(=O)C=C2 (stereo not drawn)
Activity [1]: 27.8%
IC50 [2]: > 20 µM

CN1C(=O)C(CCO[Si](c2ccccc2)(c2ccccc2)C(C)(C)C)COC12C=CC(=O)C=C2 (stereo not drawn)
Activity (MDA-MB-453 [3]): 67 mm3
Activity (MDA-MB-453 [4]): 0.009 g
Drug metabolism [5]: Metabolite_Detected
Activity [6]: Toxic
Cmax [7]: 1400 ng/mL
Activity (MDA-MB-453 [8]): 136 mm3
ED50 (MDA-MB-453 [9]): < 40 mg/kg
AUC(0-inf) [10]: 3130 ng·h/mL
IC50 (MDA-MB-453 [11]): 11.9 nM
Drug metabolism [12]: Metabolite_Detected
half-life [13]: 290 min
Drug metabolism [14]: Metabolite_Detected
Drug metabolism [15]: Metabolite_Detected
Cmax [16]: 301 ng/mL
half-life [17]: 954 min
Activity (MDA-MB-453 [18]): 126 mm3
IC50 (MDA-MB-231): 85.4 nM
Activity (MDA-MB-453 [19]): 105 mm3
Activity (MDA-MB-453 [20]): 87 mm3
Tmax [21]: 15 min
IC50 (Ca-Ski): 180 nM
AUC(0-inf) [22]: 6050 ng·h/mL
Tmax [23]: 1.17 h
AUC(0-t) at 24 h [24]: 1560 ng·h/mL
Activity (HEK293): Dde
Drug metabolism [25]: Metabolite_Detected
AUC(0-t) at 24 h [26]: 5810 ng·h/mL
Tmax [27]: 8 h
inhibition in vivo at 40 mg/kg (MDA-MB-453 [28]): 77.7%
concentration at 24 h [29]: 279 ng/mL
IC50 [2]: 0.679 µM
remaining at 0.25 h, 5 µM [30]: 1.22%

CC(C)N1C(=O)C(Cc2ccc(Cl)cc2)COC12C=CC(=O)C=C2 (stereo not drawn)
Activity [1]: 41.4%
IC50 [2]: > 20 µM
